From patent publication US9540299B2, “MTOR-independent activator of TFEB for autophagy enhancement and uses thereof” (Hong Kong Baptist University, priority 2015, dated 2017)

Target: T1, TFEB (Mus musculus, UniProt Q9R210)
T1 construct: the expression and distribution of endogenous TFEB in N2a cells treated with curcumin and its analogs are determined; endogenous in cells; host or cells: N2a cells
T1 sequence (Q9R210 1-475): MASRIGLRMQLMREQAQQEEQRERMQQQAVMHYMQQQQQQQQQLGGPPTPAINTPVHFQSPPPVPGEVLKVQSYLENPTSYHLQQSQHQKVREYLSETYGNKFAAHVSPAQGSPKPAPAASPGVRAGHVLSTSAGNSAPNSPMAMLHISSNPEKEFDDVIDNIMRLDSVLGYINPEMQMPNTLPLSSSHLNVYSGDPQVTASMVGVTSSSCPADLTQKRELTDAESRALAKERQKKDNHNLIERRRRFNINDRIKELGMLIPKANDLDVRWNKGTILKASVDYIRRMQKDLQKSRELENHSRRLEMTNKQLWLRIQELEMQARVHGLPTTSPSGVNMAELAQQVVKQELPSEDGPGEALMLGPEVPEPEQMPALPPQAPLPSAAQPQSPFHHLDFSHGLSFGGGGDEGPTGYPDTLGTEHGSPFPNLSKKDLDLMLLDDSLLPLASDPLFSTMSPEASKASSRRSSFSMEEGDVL
Experiment: Expression and distribution of endogenous TFEB in N2a cells (immunostaining, western blot)
Assay type: cell-based
Conditions: not given
Procedure: Cells were treated with curcumin (Cur, 10 μM), A2, B3 and C1 (1 μM) for 12 h. […] Data is quantified by ImageJ software and is presented as mean±SD of three replicates for each treatment conditions. At least 1000 cells are analyzed in each treatment group. *p<0.05 vs. the control (0.1% DMSO). FIG. 4C is a western blot showing the expression of endogenous TFEB. […] Data are presented as the mean±SD from three independent experiments. *p<0.05 vs. the control (0.1% DMSO). FIG. 4E is fluorescence images showing expression of 3×Flag-TFEB in Hela cells having treated with Cur (10 μM), A2, B3 and C1 (1 μM) for 12 h. Torin 1 (1 μM) treatment for 2 h is used as a positive control. Cells were fixed and stained with anti-Flag antibody. […] FIG. 4G is the western blot showing the expression of Flag-tagged TFEB in the cytosolic (Cyt.) and nuclear (Nuc.) fractions. ACTB and H3F3A (H3 histone, family 3A) are used as loading control of cytoplasmic and nuclear fraction, respectively. FIG. 4H is showing the relative intensity of TFEB in the cytosolic and nuclear fractions. Data are presented as the mean±SD from three independent experiments. *p<0.05 vs. the control (0.1% DMSO).
N2a cells are treated with E2, E3 and E4 (1 μM) for 12 hours. Torin 1 (1 μM) treatment for 2 hours is used as a positive control. The cells are fixed and stained with TFEB antibody (green) and DAPI (blue) (FIG. 16A). TFEB translocate into nucleus are quantified. Quantification data (FIG. 16B) are presented as mean±SD of three replicates in a representative experiment. At least 500 cells are analyzed in each treatment group.
N2a cells are treated with E2, E3, and E4 (1 μM) for 12 hours. Torin 1 (1 μM) treatment for 2 hours is used as a positive control. The expression of endogenous TFEB in the cytosolic (Cyt.) and nuclear (Nuc.) fractions are determined by western blotting (FIG. 17A) and quantified (FIG. 17B). TUBB (β-tubulin) and H3F3A (H3 histone, family 3A) are used as loading control of cytoplasmic and nuclear fraction respectively. Quantification data are presented as the mean±SD from three independent experiments. *p<0.05 vs. the control (0.1% DMSO).
Cells are lysed on ice in 1× Lysis Buffer (9803, Life Technologies) with complete protease inhibitor mixture (04693124001, Roche Applied Science). Animal tissues are homogenized in nine volumes of ice-cold PBS supplemented with protease inhibitors. Cytosolic and nuclear fractions are isolated using protocols similar to those described previously. Anti-Flag or TFEB antibody is added to the whole cell lysates and Dynabeads® Protein G (10003D, Life Technologies) is used for immunoprecipitation. Proteins are separated by 10-15% SDS-PAGE, transferred, and blotted with the antibodies described. The blots are then incubated with secondary antibodies or the Clean-Blot IP Detection Reagent (21230, Thermo Scientific) at room temperature for 1 h. The protein signals are detected by ECL kit (32106, Pierce) and quantified using ImageJ software.
Cells are seeded on coverslips placed in 24-well plates. After drug treatment, slices are fixed with 3.7% paraformaldehyde, permeabilized in 0.2% Triton X-100 and blocked with 5% BSA. After blocking, the slices are stained with anti-TFEB (1:200) or anti-Flag (1:500) antibodies overnight at 4° C. Alexa Fluor®488 (green) or Alexa Fluor®594 (red) secondary antibodies (1:500) are added for 1 h at room temperature. After nuclear staining with DAPI, the slices are mounted with FluorSave reagent (345789, Calbiochem). Cells are visualized using an Eclipse 80i fluorescence microscope (Nikon Instruments Inc.)
Cells are lysed on ice in 1× Lysis Buffer (9803, Life Technologies) with complete protease inhibitor mixture (04693124001, Roche Applied Science) and phosphatase inhibitor (B15001, Biotool). Cytosolic and nuclear fractions are isolated using protocols similar to those described previously. Proteins are separated by 10-15% SDS-PAGE, transferred, and blotted with the antibodies described. […]

Structure (SMILES) | activity to promote TFEB nucleus translocation, comparison among E series analogs
O=C(/C=C/c1ccccc1I)/C=C/c1ccccc1I [E4] | best activity

Same assay, conditions: N2a cells, 1 μM, 12 hours

Structure (SMILES) | nuclear accumulation of endogenous TFEB by immunofluorescence compared to vehicle control | nuclear translocation of endogenous TFEB, cytosolic and nuclear fractions by Western blots
O=C(/C=C/c1ccccc1Cl)/C=C/c1ccccc1Cl [E2] | striking nuclear accumulation | potently induce
O=C(/C=C/c1ccccc1I)/C=C/c1ccccc1I [E4] | striking nuclear accumulation | potently induce
O=C(/C=C/c1ccccc1Br)/C=C/c1ccccc1Br [E3] | striking nuclear accumulation | potently induce

Same assay, conditions: N2a cells, 12 h; curcumin 10 μM, analogs 1 μM

Structure (SMILES) | nuclear translocation (distribution) of endogenous TFEB | total levels (expression) of endogenous TFEB
O=C(/C=C/c1cccc(C(F)(F)F)c1)/C=C/c1cccc(C(F)(F)F)c1 [A2, 1,5-bis(3-(trifluoromethyl)phenyl)penta-1,4-dien-3-one] | no effects | no effects
COc1cc(/C=C/C(=O)CC(=O)/C=C/c2ccc(O)c(OC)c2)ccc1O [curcumin, Curcumin, reference compound] | no effects | no effects
O=C(/C=C/c1ccc(O)cc1)/C=C/c1ccc(O)cc1 [B3, 1,5-bis(4-hydroxyphenyl)penta-1,4-dien-3-one] | no effects | no effects
COc1ccccc1/C=C/C(=O)/C=C/c1ccccc1OC [C1, 1,5-bis(2-methoxyphenyl)penta-1,4-dien-3-one] | promotes | increases
